Laboratory results published in patent US8754076B2, “Cyclic inhibitors of 11beta-hydroxysteroid dehydrogenase 1” (Vitae Pharmaceuticals, Inc./Boehringer-Ingelheim, priority 2008, dated 2014).
pIC50: −log10 of the molar value.

Assays:
[1] = target: human CYP2C9 (Homo sapiens, UniProt P11712); experiment: Biological Test Example 9: CYP2C9 inhibition (Invitrogen kit, fluorogenic substrate OOMR); assay type: in vitro ADME
[2] = target: T1, human 11β-HSD1 (Homo sapiens, UniProt P28845); assay type: biochemical
T1 construct: expressed in transfected cells; host or cells: CHO cells (microsomal preparation)
T1 sequence (P28845 whole entry): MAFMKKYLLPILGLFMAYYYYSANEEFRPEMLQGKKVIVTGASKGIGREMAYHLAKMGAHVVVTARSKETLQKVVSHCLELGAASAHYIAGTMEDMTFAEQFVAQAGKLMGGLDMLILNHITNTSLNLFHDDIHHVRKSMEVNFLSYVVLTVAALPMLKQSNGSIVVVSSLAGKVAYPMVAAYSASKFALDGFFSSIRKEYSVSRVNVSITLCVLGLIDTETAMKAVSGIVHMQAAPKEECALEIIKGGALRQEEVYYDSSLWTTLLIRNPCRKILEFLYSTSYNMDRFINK

human CYP2C9, sequence (P11712 whole entry): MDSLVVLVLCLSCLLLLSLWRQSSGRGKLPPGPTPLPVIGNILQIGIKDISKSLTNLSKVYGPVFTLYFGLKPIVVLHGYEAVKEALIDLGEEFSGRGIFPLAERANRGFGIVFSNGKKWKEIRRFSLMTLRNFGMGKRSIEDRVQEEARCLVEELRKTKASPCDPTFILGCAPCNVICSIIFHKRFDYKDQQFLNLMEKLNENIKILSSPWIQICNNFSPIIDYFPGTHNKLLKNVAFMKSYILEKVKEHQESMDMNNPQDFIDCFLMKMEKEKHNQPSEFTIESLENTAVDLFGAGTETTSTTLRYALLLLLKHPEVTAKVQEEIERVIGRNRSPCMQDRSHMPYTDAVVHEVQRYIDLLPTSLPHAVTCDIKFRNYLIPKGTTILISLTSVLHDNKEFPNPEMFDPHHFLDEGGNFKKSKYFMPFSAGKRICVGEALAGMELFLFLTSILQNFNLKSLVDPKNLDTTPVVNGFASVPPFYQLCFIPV

pIC50 [1]	Compound	Shift [2]
4.55	C[C@@H](c1ccc(-c2ccn(C3CC3)c(=O)c2)cc1)N1CCC(CC2CC2)(CC(C)(C)O)OC1=O (single isomer, unassigned) [93 Isomer 1]	–
–	C[C@@H](c1ccc(-c2cccn(C)c2=O)cc1)N1CC[C@](CCCO)(c2ccc(F)cc2)OC1=O [Example 42, (R)-6-(4-fluorophenyl)-6-(3-hydroxypropyl)-3-((S)-1-(4-(1-methyl-2-oxo-1,2-dihydropyridin-3-yl)phenyl)ethyl)-1,3-oxazinan-2-one]	7.97
< 4.52	C[C@@H](c1ccc(-c2ccn(C)c(=O)c2)cc1)N1CC[C@](CC(C)(C)O)(c2ccccc2)OC1=O [Example 48, (S)-6-(2-hydroxy-2-methylpropyl)-3-((S)-1-(4-(1-methyl-2-oxo-1,2-dihydropyridin-4-yl)phenyl)ethyl)-6-phenyl-1,3-oxazinan-2-one]	–
< 4.52	CCn1cc(-c2ccc([C@H](C)N3CC[C@](CC(C)(C)O)(c4ccccc4)OC3=O)cc2)ccc1=O [Example 53, (S)-3-((S)-1-(4-(1-ethyl-6-oxo-1,6-dihydropyridin-3-yl)phenyl)ethyl)-6-(2-hydroxy-2-methylpropyl)-6-phenyl-1,3-oxazinan-2-one]	–
